Results published in patent US9993478B2, “1-pyrazolyl-3-(4-((2-anilinopyrimidin-4-yl) oxy) napththalen-1-yl) ureas as P38 MAP knase inhibitors” (Respivert Ltd., priority 2011, dated 2018).

Tested on: d-U937 cells
Assay: Cell viability: MTT assay
Type: cell-based, human
Conditions: 1 μg/mL
Protocol: Differentiated U937 cells were pre-incubated with each test compound (final concentration 1 μg/mL or 10 μg/mL in 200 μL media indicated below) under two protocols: the first for 4 hr in 5% FCS RPMI1640 media and the second in 10% FCS RPMI1640 media for 24 h. The supernatant was replaced with new media (200 μL) and MTT stock solution (10 μL, 5 mg/mL) was added to each well. After incubation for 1 hr the media were removed, DMSO (200 μL) was added to each well and the plates were shaken lightly for 1 hr prior to reading the absorbance at 550 nm. The percentage loss of cell viability was calculated for each well relative to vehicle (0.5% DMSO) treatment. Consequently an apparent increase in cell viability for drug treatment relative to vehicle is tabulated as a negative percentage.

SMILES | MTT Assay Cell viability at time point in d-U937 Cells 4 h | MTT Assay Cell viability at time point in d-U937 Cells 24 h
COc1ccc(-n2nc(C(C)(C)C)cc2NC(=O)Nc2ccc(Oc3ccnc(Nc4ccc(O)cc4)n3)c3ccccc23)cc1 [Example 33, 1-(3-(tert-butyl)-1-(4-methoxyphenyl)-1H-pyrazol-5-yl)-3-(4-((2-((4-hydroxyphenyl)amino)pyrimidin-4-yl)oxy)naphthalen-1-yl)urea] | −ve (−ve and +ve indicate the value is below and above respectively, the no significant effect threshold defined as 30% inhibition at 1 μg/mL at the time point indicated) | −ve (−ve and +ve indicate the value is below and above respectively, the no significant effect threshold defined as 30% inhibition at 1 μg/mL at the time point indicated)
COc1ccc(-n2nc(C(C)(C)C)cc2NC(=O)Nc2ccc(Oc3ccnc(Nc4ccccc4)n3)c3ccccc23)cc1 [Example 7, 1-(3-(tert-butyl)-1-(4-methoxyphenyl)-1H-pyrazol-5-yl)-3-(4-((2-(phenylamino)pyrimidin-4-yl)oxy)naphthalen-1-yl)urea] | −ve (−ve and +ve indicate the value is below and above respectively, the no significant effect threshold defined as 30% inhibition at 1 μg/mL at the time point indicated) | −ve (−ve and +ve indicate the value is below and above respectively, the no significant effect threshold defined as 30% inhibition at 1 μg/mL at the time point indicated)
Cc1ccc(-n2nc(C(C)(C)C)cc2NC(=O)Nc2ccc(Oc3ccnc(Nc4cccc(Cl)c4)n3)c3ccccc23)cc1 [Example 13, 1-(3-(tert-butyl)-1-(p-tolyl)-1H-pyrazol-5-yl)-3-(4-((2-((3-chlorophenyl)amino)pyrimidin-4-yl)oxy)naphthalen-1-yl)urea] | −ve (−ve and +ve indicate the value is below and above respectively, the no significant effect threshold defined as 30% inhibition at 1 μg/mL at the time point indicated) | −ve (−ve and +ve indicate the value is below and above respectively, the no significant effect threshold defined as 30% inhibition at 1 μg/mL at the time point indicated)
Cc1ccc(Nc2nccc(Oc3ccc(NC(=O)Nc4cc(C(C)(C)C)nn4-c4ccc(C)cc4)c4ccccc34)n2)cc1 [Example 11, 1-(3-(tert-butyl)-1-(p-tolyl)-1H-pyrazol-5-yl)-3-(4-((2-(p-tolylamino)pyrimidin-4-yl)oxy)naphthalen-1-yl)urea] | −ve (−ve and +ve indicate the value is below and above respectively, the no significant effect threshold defined as 30% inhibition at 1 μg/mL at the time point indicated) | −ve (−ve and +ve indicate the value is below and above respectively, the no significant effect threshold defined as 30% inhibition at 1 μg/mL at the time point indicated)
CC(C)(C)c1cc(NC(=O)Nc2ccc(Oc3ccnc(Nc4ccccc4)n3)c3ccccc23)n(-c2ccc(O)cc2)n1 [Example 3, 1-(3-(tert-butyl)-1-(4-hydroxyphenyl)-1H-pyrazol-5-yl)-3-(4-((2-(phenylamino)pyrimidin-4-yl)oxy)naphthalen-1-yl)urea] | −ve (−ve and +ve indicate the value is below and above respectively, the no significant effect threshold defined as 30% inhibition at 1 μg/mL at the time point indicated) | −ve (−ve and +ve indicate the value is below and above respectively, the no significant effect threshold defined as 30% inhibition at 1 μg/mL at the time point indicated)
Cc1ccc(-n2nc(C(C)(C)C)cc2NC(=O)Nc2ccc(Oc3ccnc(Nc4cccc(C)c4)n3)c3ccccc23)cc1 [Example 12, 1-(3-(tert-butyl)-1-(p-tolyl)-1H-pyrazol-5-yl)-3-(4-((2-(m-tolylamino)pyrimidin-4-yl)oxy)naphthalen-1-yl)urea] | −ve (−ve and +ve indicate the value is below and above respectively, the no significant effect threshold defined as 30% inhibition at 1 μg/mL at the time point indicated) | −ve (−ve and +ve indicate the value is below and above respectively, the no significant effect threshold defined as 30% inhibition at 1 μg/mL at the time point indicated)
